Data published in PubChem BioAssay (NCI).
“And” between values parts separate entries of the source, which are not always exact repeats. Identical values can stand only once.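 How tested: cells in 96-well plates exposed to compound for 48 hours at five concentrations. GI50 = concentration required for 50% inhibition of growth. TGI: total growth inhibition.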

Legend:
Test in all cases: NCI-60 cell line screen, 48 h
[1] = test system: HOP-18 NSCLC
[2] = test system: KM20L2 colon
[3] = test system: LXFL 529 NSCLC
[4] = test system: M19-MEL melanoma
[5] = test system: NCI-H226 lung
[6] = test system: SNB-78 CNS
[7] = test system: XF 498 CNS
[8] = test system: MCF7 breast
[9] = test system: BT-549 breast
[10] = test system: MDA-MB-231 breast
[11] = test system: T-47D breast

SMILES: CC(C)=CC(=O)C1c2cccc(O)c2C(=O)c2c(O)cc(C)cc21 (stereo not given)
- TGI [1]: 4.03 µM
- TGI [2]: 17.6 µM
- TGI [3]: 4.47 µM
- TGI [4]: 3.43 µM
- TGI [5]: 4.65 µM
- TGI [6]: 7.84 µM
- TGI [7]: 3.11 µM

SMILES: O=CN/C=C/c1cc(O)ccc1O
- TGI [1]: > 56.8 µM
- TGI [2]: > 80.3 µM
- TGI [3]: 23.9 µM
- TGI [4]: 28.5 µM
- TGI [8]: 30.2 µM
- TGI [5]: > 88.1 µM
- TGI [6]: 44.3 µM
- TGI [7]: 34.1 µM

SMILES: O=C(O)c1ccccc1[Se][Se]c1ccccc1C(=O)O
- TGI [1]: > 100 µM
- TGI [2]: 68.5 µM
- TGI [4]: > 100 µM
- TGI [5]: 31.4 µM
- TGI [7]: > 100 µM

SMILES: CN(C)CC[N+]1=Nc2cccc3cccc(c23)N1
- TGI [1]: > 100 µM
- TGI [2]: > 100 µM
- TGI [3]: > 100 µM
- TGI [4]: > 100 µM
- TGI [5]: > 100 µM
- TGI [6]: > 100 µM
- TGI [7]: > 100 µM

SMILES: COc1ccc2c3c1C(=O)CCCC3CO2 (stereo not given)
- TGI [3]: > 100 µM
- TGI [4]: > 100 µM
- TGI [5]: > 100 µM
- TGI [6]: > 100 µM
- TGI [7]: > 100 µM

SMILES: O=S1(=O)c2ccccc2NC(c2ccc3ccccc3c2)CC1c1ccccc1F (stereo not given)
- TGI [1]: 56.1 µM
- TGI [2]: > 100 µM
- TGI [4]: > 100 µM
- TGI [5]: > 100 µM
- TGI [7]: > 100 µM

SMILES: O=C1/C(=C/c2ccccc2)CN(C(=O)C(Cl)(Cl)Cl)C/C1=C\c1ccccc1
- TGI [1]: 9.6 µM
- TGI [2]: 4.67 µM
- TGI [3]: 3.38 µM
- TGI [4]: 2.68 µM
- TGI [6]: 7.54 µM

SMILES: CCCCCCCCCCCOc1ccc(C(=O)C(=O)c2ccc(OCCCCCCCCCCC)c(OCCCCCCCCCCC)c2)cc1OCCCCCCCCCCC
- TGI [2]: > 100 µM
- TGI [3]: > 100 µM
- TGI [4]: > 100 µM
- TGI [5]: > 100 µM
- TGI [6]: > 100 µM
- TGI [7]: > 100 µM

SMILES: O=CC[C@H]1C(=O)C[C@@H]2CCC[C@@H]21
- TGI [3]: > 100 µM
- TGI [4]: > 100 µM
- TGI [5]: > 100 µM
- TGI [6]: > 100 µM
- TGI [7]: > 100 µM

SMILES: C/C(CC(=O)CCC(=O)Nc1cccc(C(F)(F)F)c1)=N\NC(=O)NN
- TGI [1]: > 100 µM
- TGI [2]: > 100 µM
- TGI [3]: > 100 µM
- TGI [4]: > 100 µM
- TGI [5]: > 100 µM
- TGI [6]: > 100 µM
- TGI [7]: > 100 µM

SMILES: Cn1cnc([N+](=O)[O-])c1Sc1nnc(-c2cccnc2)n1C
- TGI [9]: 36.5 µM
- TGI [1]: 35.6 µM
- TGI [2]: > 100 µM
- TGI [3]: 24.4 µM
- TGI [4]: 38.8 µM
- TGI [8]: 46.8 µM
- TGI [10]: 39.4 µM
- TGI [5]: > 81.6 µM
- TGI [6]: 63.2 µM
- TGI [11]: 32 µM
- TGI [7]: 44.8 µM

SMILES: O=C(/C=C/c1ccccc1)NC1C=Nc2ccc(Cl)cc2NC1=O (stereo not given)
- TGI [1]: > 100 µM
- TGI [2]: 62.9 µM
- TGI [3]: > 100 µM
- TGI [4]: 64.5 µM
- TGI [5]: > 100 µM
- TGI [6]: > 100 µM
- TGI [7]: 50.1 µM

SMILES: COC(=O)CC1CCN(C#N)CC1CC[N+](=O)[O-] (stereo not given)
- TGI [1]: > 100 µM
- TGI [2]: > 100 µM
- TGI [3]: > 100 µM
- TGI [4]: > 100 µM
- TGI [5]: > 100 µM
- TGI [6]: > 100 µM

SMILES: N#CC1C(C#N)C2(c3ccccc3)C(c3ccccc3)=NN(c3ccccc3)CC12 (stereo not given)
- TGI [1]: > 100 µM
- TGI [2]: > 100 µM
- TGI [3]: > 100 µM
- TGI [4]: > 100 µM
- TGI [5]: > 100 µM
- TGI [6]: > 100 µM
- TGI [7]: > 100 µM

SMILES: O=C(COc1ccc(Br)cc1Br)N1N=C(c2ccc([N+](=O)[O-])o2)CC1(O)c1ccccc1 (stereo not given)
- TGI [1]: 41 µM
- TGI [2]: 58.8 µM
- TGI [3]: 21.6 µM
- TGI [5]: 36.4 µM
- TGI [6]: > 100 µM

SMILES: CCOC(=O)CN1C(=O)c2cccc3cc([N+](=O)[O-])cc(c23)C1=O
- TGI [1]: 33.8 µM
- TGI [2]: 26.5 µM
- TGI [3]: 3.13 µM
- TGI [5]: 23 µM
- TGI [6]: 19.3 µM
- TGI [7]: 4.49 µM

SMILES: N#CCCN(CCC#N)c1ccc(/C=C2\N=C(c3cc([N+](=O)[O-])ccc3Cl)OC2=O)cc1
- TGI [2]: > 100 µM
- TGI [3]: 49.3 µM
- TGI [4]: 45 µM
- TGI [5]: 44 µM
- TGI [7]: 86.2 µM

SMILES: CC(C)C/C(CC(=O)CCC(=O)Nc1ccccc1[N+](=O)[O-])=N\NC(=O)c1cc2ccccc2cc1O
- TGI [1]: > 100 µM
- TGI [2]: > 100 µM
- TGI [3]: > 100 µM
- TGI [4]: 65.1 µM
- TGI [5]: > 100 µM
- TGI [7]: > 100 µM

SMILES: N#CC(c1ccc(Cl)cc1)c1cccc(C(C#N)c2ccc(Cl)cc2)n1 (stereo not given)
- TGI [2]: > 100 µM
- TGI [3]: > 100 µM
- TGI [4]: > 100 µM
- TGI [5]: > 100 µM
- TGI [6]: > 100 µM
- TGI [7]: 26.2 µM

SMILES: CCCCC(=O)OCC(=O)[C@]1(O)Cc2c(O)c3c(c(O)c2[C@@H](OC2CC(NC(=O)C(F)(F)F)C(O)C(C)O2)C1)C(=O)c1c(OC)cccc1C3=O (stereo not given in full)
- TGI [9]: 9.7 µM
- TGI [2]: > 100 µM
- TGI [3]: > 32.7 µM
- TGI [4]: 1.9 µM
- TGI [10]: > 100 µM
- TGI [5]: 0.192 µM
- TGI [11]: 7.55 µM
- TGI [7]: 0.97 µM

SMILES: CCOc1ccc(NC(=O)C(=O)CC(=O)c2c[n+](=O)c3cc(C)c(C)cc3n2[O-])cc1
- TGI [1]: > 100 µM
- TGI [2]: > 100 µM
- TGI [3]: > 100 µM
- TGI [4]: > 100 µM
- TGI [5]: > 100 µM
- TGI [6]: > 100 µM
- TGI [7]: > 100 µM

SMILES: Cc1cc(C)nc(NS(=O)(=O)c2ccc(NC(=O)c3ccc(Cl)c4c(Nc5ccc(S(=O)(=O)Nc6nc(C)cc(C)n6)cc5)c5ccccc5nc34)cc2)n1
- TGI [1]: 6.53 µM
- TGI [2]: 69.9 µM
- TGI [3]: 61.2 µM
- TGI [4]: 8.28 µM
- TGI [6]: > 100 µM
- TGI [7]: > 100 µM

SMILES: O=C1C2C(C(=O)N1OS(=O)(=O)c1ccccc1)N(Cc1ccccc1)C(=O)N2Cc1ccccc1 (stereo not given)
- TGI [2]: > 100 µM
- TGI [3]: > 100 µM
- TGI [4]: > 100 µM
- TGI [5]: > 100 µM
- TGI [6]: > 100 µM
- TGI [7]: > 100 µM

SMILES: CN1C(=O)C(C)(C)C2(SC(C)(C)C2(C)C)N(C)C1=S (stereo not given)
- TGI [1]: > 100 µM
- TGI [3]: > 100 µM
- TGI [4]: > 100 µM
- TGI [5]: > 100 µM
- TGI [6]: > 100 µM

SMILES: CCCCCCCCCCCCCCCCCC(CCCCCCCCCCCCCCCCC)OP(=O)(O)O
- TGI [1]: > 100 µM
- TGI [2]: > 100 µM
- TGI [3]: > 100 µM
- TGI [4]: > 100 µM
- TGI [5]: > 100 µM
- TGI [6]: > 100 µM

SMILES: COc1ccccc1C12OC(=O)C1(C)Oc1ccccc1C2=O (stereo not given)
- TGI [2]: > 100 µM
- TGI [3]: > 100 µM
- TGI [4]: > 100 µM
- TGI [5]: > 100 µM
- TGI [6]: > 100 µM
- TGI [7]: > 100 µM

SMILES: O=C(N/C(=C\c1ccc(/C=C(\NC(=O)c2ccccc2)c2nc3cc([N+](=O)[O-])ccc3[nH]2)cc1)c1nc2cc([N+](=O)[O-])ccc2[nH]1)c1ccccc1
- TGI [1]: > 100 µM
- TGI [2]: > 100 µM
- TGI [3]: > 100 µM
- TGI [4]: > 100 µM
- TGI [6]: > 100 µM

SMILES: COC(=O)[C@@H]1[C@H](O)[C@H](C)[C@H](O)[C@@](C)(O)/C=C\C=C(C)C(=O)Nc2c(C)c(OC(C)=O)c3c(c2O)C(=O)C(C)=C2OCOC(=C23)C(C)=C[C@@](C)(O)[C@H](O)[C@@H](C)[C@H]1OC(C)=O
- GI50 [1]: 41.3 µM
- TGI [1]: > 100 µM and 66.9 µM
- TGI [2]: 66.9 µM and > 100 µM
- GI50 [3]: 35.6 µM
- TGI [3]: > 100 µM and 66.9 µM
- GI50 [4]: 15 µM
- TGI [4]: > 100 µM and 21.6 µM and 28.3 µM
- TGI [5]: > 100 µM
- TGI [6]: > 100 µM

SMILES: COC1(OC)CCC2C1C1CCC(OC)(OC)C21 (stereo not given)
- TGI [1]: > 50 µM
- TGI [2]: > 50 µM
- TGI [3]: > 50 µM
- TGI [4]: > 50 µM
- TGI [5]: > 50 µM
- TGI [6]: > 50 µM
- TGI [7]: > 50 µM

SMILES: O=C1C(=O)N(c2ccc(Cl)cc2Cl)C(=O)C(=O)C1c1nc2ccccc2s1
- TGI [1]: > 100 µM
- TGI [2]: > 100 µM
- TGI [3]: > 100 µM
- TGI [4]: > 100 µM
- TGI [5]: > 100 µM
- TGI [7]: 98.1 µM

SMILES: Clc1cc2nsnc2c(Cl)n1
- TGI [1]: 31.7 µM
- TGI [2]: > 100 µM
- TGI [3]: 27.8 µM
- TGI [4]: 75.5 µM
- TGI [5]: 42.3 µM
- TGI [6]: > 100 µM
- TGI [7]: 31.2 µM

SMILES: CC1=C(C(=O)NCc2ccccc2)C(/C=C/c2ccccc2)C(C(=O)NCc2ccccc2)=C(C)N1
- TGI [1]: > 100 µM
- TGI [2]: > 100 µM
- TGI [3]: > 100 µM
- TGI [4]: > 100 µM
- TGI [5]: > 100 µM
- TGI [6]: > 100 µM
- TGI [7]: > 100 µM

SMILES: O=C(O)CCc1coc2ccc(O)cc12
- TGI [1]: > 100 µM
- TGI [2]: > 100 µM
- TGI [3]: > 100 µM
- TGI [4]: > 100 µM
- TGI [6]: > 100 µM
- TGI [7]: > 100 µM

SMILES: CC(=O)NNc1nc(C)c(C(=O)NNC(=O)C(=O)Nc2c(Cl)cc([N+](=O)[O-])cc2Cl)s1
- TGI [2]: > 100 µM
- TGI [3]: > 100 µM
- TGI [4]: > 100 µM
- TGI [5]: 82.6 µM
- TGI [6]: > 100 µM
